Reference: patent publication US20020052295A1, “Diacyl derivatives of propylene diamine having herbicidal activity” (priority 1999, published 2002)

Assays:
PANMI = assay: Pre-emergence herbicidal activity on PANMI (wild proso millet); type: in vivo, Panicum miliaceum
How it was run: (§1)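 Steps: sterilized fertilized topsoil potted; seeds sown, covered; compound (50:50 acetone/water dilution) applied to soil surface; 0.64 cm overhead irrigation; greenhouse 30/21 °C day/night; % inhibition vs untreated scored at ~14 d; GR80 calculated.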

DATST = assay: Pre-emergence herbicidal activity on DATST (jimsonweed); type: in vivo, Datura stramonium
How it was run: as §1

SOLNI = assay: Pre-emergence herbicidal activity on SOLNI (black nightshade); type: in vivo, Solanum nigrum
How it was run: as §1

PANDI = assay: Pre-emergence herbicidal activity on PANDI (fall panicum); type: in vivo, Panicum dichotomiflorum
How it was run: as §1

DIGSA = assay: Pre-emergence herbicidal activity on DIGSA (large crabgrass); type: in vivo, Digitaria sanguinalis
How it was run: as §1

CONAR = assay: Pre-emergence herbicidal activity on CONAR (field bindweed); type: in vivo, Convolvulus arvensis
How it was run: as §1

SORHA = assay: Pre-emergence herbicidal activity on SORHA (johnsongrass, seedling); type: in vivo, Sorghum halepense
How it was run: as §1

[1] = system: monocotyledonous and dicotyledonous annual plant species; assay: Greenhouse pre-emergence test, all species of the test taken together; type: in vivo; details: acetochlor alone at 100 g/ha
Description: All such uses, and the biological activity enabling such uses, are embraced by the term “herbicidal” herein. […] Where herbicidal activity was evident but 80% inhibition was not achieved at the highest rate tested (typically 1000 g/ha), an asterisk (*) is shown in the following tables. Herbicidal activity evident in the form of symptoms of phytotoxicity, in the absence of at least 80% inhibition at any rate, is indicated in the tables by “phyto”. A blank cell in the following tables indicates no herbicidal or phytotoxic response at any rate tested.
(§2) The pre-emergence tests were conducted by the following procedure. Topsoil was sieved to pass through a 1.27 cm screen. Fertilizer was added to the topsoil and the mixture was then sterilized by heating. The topsoil mixture was placed in a pot and compacted to a depth of 1.0 to 1.25 cm from the top of the pot. Seeds of each of several monocotyledonous and dicotyledonous annual plant species were placed on top of the soil. Additional soil was subsequently placed over the seeds to level-fill the pot. A known amount of each test compound dissolved or suspended in an appropriate organic solvent was diluted with a 50:50 mix of acetone and water and applied to the surface of the soil. After treatment the plants were placed in a greenhouse with a 30/21° C. day/night temperature regime where they received 0.64 cm of overhead irrigation. All subsequent watering consisted of a light overhead mist and/or subirrigation as needed for germination and growth.
Pre-emergence herbicidal activity of the compound of Example 5, a racemic mixture of R- and S-enantiomers of N,N′-(1,2-propanediylbis)-3-(trifluoromethyl) benzamide, was compared with that of the individual R- and S-enantiomers, the compounds of Examples 5a and 5b respectively. The procedure was exactly as described above. Rates tested were 1000, 650, 300, 200, 100, 65, 30 and 10 g/ha.
In a greenhouse pre-emergence test conducted according to the procedure described hereinabove, R—N,N′-(1,2-propanediylbis)-3-(trifluoromethyl)benzamide (the compound of Example 5a) was applied at 200 g/ha and acetochlor was applied at 100 g/ha, both individually and in combination.
In the same greenhouse pre-emergence test, R-2-fluoro-3-trifluoromethyl-N-[1-methyl-2-(3-trifluoromethyl)phenylcarbonylamino]ethylbenzamide (the compound of Example 13) was applied at 100 g/ha and acetochlor was applied at 100 g/ha, both individually and in combination.

SETFA = assay: Pre-emergence herbicidal activity on SETFA (giant foxtail); type: in vivo, Setaria faberi
How it was run: as §1

AMARE = assay: Pre-emergence herbicidal activity on AMARE (redroot pigweed); type: in vivo, Amaranthus retroflexus
How it was run: as §1

BRAPP = assay: Pre-emergence herbicidal activity on BRAPP (broadleaf signalgrass); type: in vivo, Brachiaria platyphylla
How it was run: as §1

CHEAL = assay: Pre-emergence herbicidal activity on CHEAL (common lambsquarters); type: in vivo, Chenopodium album
How it was run: as §1

ABUTH = assay: Pre-emergence herbicidal activity on ABUTH (velvetleaf); type: in vivo, Abutilon theophrasti
How it was run: as §1

CIRAR = assay: Pre-emergence herbicidal activity on CIRAR (canada thistle, seedling); type: in vivo, Cirsium arvense
How it was run: as §1

POROL = assay: Pre-emergence herbicidal activity on POROL (common purslane); type: in vivo, Portulaca oleracea
How it was run: as §1

SORVU = assay: Pre-emergence herbicidal activity on SORVU (shattercane); type: in vivo, Sorghum vulgare; details: lowest tested rate giving 80% or greater inhibition, approx. 14 days after planting and treating, greenhouse
Description: All such uses, and the biological activity enabling such uses, are embraced by the term “herbicidal” herein. Tables 15 and 16 summarize results of tests conducted as described below to determine the pre-emergence herbicidal activity, in the form of a GR80 value, of illustrative compounds of this invention. […] Where herbicidal activity was evident but 80% inhibition was not achieved at the highest rate tested (typically 1000 g/ha), an asterisk (*) is shown in the following tables. Herbicidal activity evident in the form of symptoms of phytotoxicity, in the absence of at least 80% inhibition at any rate, is indicated in the tables by “phyto”. A blank cell in the following tables indicates no herbicidal or phytotoxic response at any rate tested.
as §2
Approximately 14 days after planting and treating, the plants were observed and herbicidal efficacy recorded as percent inhibition by comparison with untreated plants.
The plant species usually regarded as weeds which were utilized in the tests are identified in the tables below according to the following legend, in which “d” indicates a dicotyledonous species and “m” a monocotyledonous species. All monocotyledonous species included in the tests herein are grasses.

ECHCG = assay: Pre-emergence herbicidal activity on ECHCG (barnyardgrass); type: in vivo, Echinochloa crus-galli; details: lowest tested rate giving 80% or greater inhibition, approx. 14 days after planting and treating, greenhouse
How it was run: as §1

[2] = applied alone at 100 g/ha, greenhouse
[3] = pre-emergence application, acetochlor 100 g/ha alone
[4] = lowest tested rate giving 80% or greater inhibition, approx. 14 days after planting and treating, greenhouse

CCOCN(C(=O)CCl)c1c(C)cccc1CC [Acetochlor, acetochlor, reference compound]
Percent control by pre-emergence application, PANMI (PANMI; [2]): 83%
Percent control PANMI (PANMI; [3]): 83%
Percent control by pre-emergence application, DATST (DATST; [2]): 33%
Percent control DATST (DATST; [3]): 33%
Percent control by pre-emergence application, SOLNI (SOLNI; [2]): 75%
Percent control SOLNI (SOLNI; [3]): 75%
Percent control by pre-emergence application, PANDI (PANDI; [2]): 100%
Percent control PANDI (PANDI; [3]): 100%
Percent control by pre-emergence application, DIGSA (DIGSA; [2]): 100%
Percent control DIGSA (DIGSA; [3]): 100%
Percent control by pre-emergence application, CONAR (CONAR; [2]): 23%
Percent control CONAR (CONAR; [3]): 23%
Percent control by pre-emergence application, SORHA (SORHA; [2]): 83%
Percent control SORHA (SORHA; [3]): 83%
number of the 14 species showing >85% control [1]: 7
Percent control by pre-emergence application, SETFA (SETFA; [2]): 100%
Percent control SETFA (SETFA; [3]): 100%
Percent control by pre-emergence application, AMARE (AMARE; [2]): 100%
Percent control AMARE (AMARE; [3]): 100%
Percent control by pre-emergence application, BRAPP (BRAPP; [2]): 76%
Percent control BRAPP (BRAPP; [3]): 76%
Percent control by pre-emergence application, CHEAL (CHEAL; [2]): 100%
Percent control CHEAL (CHEAL; [3]): 100%
Percent control by pre-emergence application, ABUTH (ABUTH; [2]): 0%
Percent control ABUTH (ABUTH; [3]): 0%
Percent control by pre-emergence application, CIRAR (CIRAR; [2]): 100%
Percent control CIRAR (CIRAR; [3]): 100%
Percent control by pre-emergence application, POROL (POROL; [2]): 100%
Percent control POROL (POROL; [3]): 100%

CC(CNC(=O)c1cccc(C(F)(F)F)c1)NC(=O)c1cccc(C(F)(F)F)c1Cl (stereo not drawn) [Example 14]
Pre-emergence activity (GR80) on PANMI (PANMI; [4]): 500 g/ha
Pre-emergence activity (GR80) on DATST (DATST; [4]): 64 g/ha
Pre-emergence activity (GR80) on SOLNI (SOLNI; [4]): 125 g/ha
Pre-emergence activity (GR80) on PANDI (PANDI; [4]): 250 g/ha
Pre-emergence activity (GR80) on DIGSA (DIGSA; [4]): 125 g/ha
Pre-emergence activity (GR80) on CONAR (CONAR; [4]): 125 g/ha
Pre-emergence activity (GR80) on SORHA (SORHA; [4]): 500 g/ha
Pre-emergence activity (GR80) on SETFA (SETFA; [4]): 250 g/ha
Pre-emergence activity (GR80) on AMARE (AMARE; [4]): 125 g/ha
Pre-emergence activity (GR80) on BRAPP (BRAPP; [4]): 500 g/ha
Pre-emergence activity (GR80) on SORVU (SORVU): phyto
Pre-emergence activity (GR80) on CHEAL (CHEAL; [4]): 64 g/ha
Pre-emergence activity (GR80) on ABUTH (ABUTH; [4]): 250 g/ha
Pre-emergence activity (GR80) on ECHCG (ECHCG): 1000 g/ha
Pre-emergence activity (GR80) on CIRAR (CIRAR; [4]): 64 g/ha
Pre-emergence activity (GR80) on PORAL (POROL; [4]): 125 g/ha
